Reference: article PMC12128024, “Copper(II) Cyclopeptides with High ROS-Mediated Cytotoxicity” (Bioconjugate Chemistry, 2025)
*1 amine or outer side, *2 acyl side, *3 side chain or, on linkers, in order; H or OH if unused. Where a SMILES comes first, the peptide text is derived from it. [ ]: non-standard residue; d: D form. X1 = O=C(c1ccc(-c2ccc(N[*:1])cn2)nc1)[*:2]; βAla = NCCC(=O)O

Experiments:
SF-268 (human glioma) = conditions: 72 h
Excerpt: IC50 is the concentration at which 50% growth inhibition is obtained and E max represents the efficacy of the compound at its maximum concentration, expressed as the maximum % cell inhibition achieved by the compound (see Section S6 and Figure S8 of the Supporting Information).
General method: cell lines and grown conditions
Non-small lung carcinoma NCI-H460, human colon carcinoma HCT-116, human glioma SF-268
and doxorubicin-resistance human mamma carcinoma NCI/ADR-RES cell lines, as well as
Eagle’s Minimal Essential Medium (EMEM) and RPMI1640 were purchased from the American Tissue Culture Collection (ATCC). Frozen cells were thawed in a 75 cm2 cell culture flask in RPMI
supplemented with 2 mM L-glutamine and 10% FBS and maintained at 37 °C in a 5% CO2
The inhibition of cell proliferation induced by the samples [1/Cu(II), 1 eq. cyclopeptide 1/3 eq. of
Cu(II); 2/Cu(II), 1 eq. cyclopeptide 2/5 eq. of Cu(II)]‚ was carried out by using MTT method for
HCT-116, NCI/ADR-RES and NCI-H460 cell lines. SF-268 cell growth inhibition induced by the
samples was assessed using a system based on crystal violet cell staining and subsequent
acetylation. Cells were seeded in a 96-well microplate (5000 cells/well for HCT-116, 10000
cells/well for SF-268 and 15000 cells/well for NCI/ADR-RES and NCI-H460 cell lines) in 100 μl
of growth medium and maintained at 37 °C for 24 h.
Then growth medium was replaced by fresh medium containing different concentrations of the
samples to be assayed and maintained at 37 °C in a 5% CO2 atmosphere for 48 h. After this
time, 10 μL MTT (5 mg/ml in PBS) were added to each well and maintained for 4 h at 37 °C in a
5% CO2 atmosphere. Then 100 μL of 10% SDS in 0.01 M HCl were added to each well an
incubated for 12-14 h under the same experimental conditions. Absorbance due to formation
was detected in a Tecan infinity M1000 Pro reader using a wavelength of 595 nm. All assays
were performed with triplicate points.
b) Crystal violet cell staining
The samples dissolved in water were added, maintaining the same proportion of water in each
well (10%). After 72 h (at 37°C and in an atmosphere of 5% CO 2/95% air), the cells were fixed to
the plate with 10 μL of 11% glutaraldehyde solution, kept under agitation at room temperature,
for 15 minutes. Once fixed, the medium was removed and the cells were washed 3-4 times with
distilled water, followed by staining of the cells with 100 μL of a 0.1% crystal violet solution. This
solution was prepared by diluting 0.1g of crystal violet in 100 mL of buffer composed of 200 mM
phosphoric acid, 200 mM formic acid and 200 mM 2-(N-morpholino)-ethane sulphonic acid
(MES) at pH 6. The plate was kept shaking at room temperature for 15 minutes. The dye was
removed, washed 3-4 times with distilled water and dried. 100 μL of 10% acetic acid was then
added and kept under agitation for 15 minutes, at room temperature, so that the staining was
homogeneous in all wells. Finally, an absorbance reading of the plates was performed at a
wavelength of 595 nm (Tecan M1000 Infinite Pro). The assay was performed with triplicate points.
Data were expressed as the growth inhibition percentage calculated in basis on the equation: %
inhibition= 100 – [(AO × 100) / AT]. Where AT is the measured absorbance in wells containing
compounds and AO is the absorbance measured in blank wells (cells with medium and vehicle).
The inhibitory potency of compounds was calculated by constructing concentration-% growth
inhibition curves, and extrapolating IC50 values (concentration of compound that inhibits cells

[1] = Fluorescence titration of cyclopeptides with Cu(II) ions (DynaFit fit); type: binding; conditions: 2 μM cyclopeptide, 1 mM phosphate buffer, 10 mM NaCl, pH 6.5; 1: 1:2 model (cyclopeptide:metal); 2: simplified model with 1:1 and 2:1 species; read-out: global dissociation constant K D
Excerpt: While the 2,2′-bipyridine ligand is known to be weakly emissive and for all practical purposes considered nonfluorescent, , the 5′-amido-[2,2′-bipyridine]-5-carboxamide unit in the βAlaBpy building block is highly emissive, displaying an intense emission band at c.a. 410 nm with a quantum yield of 0.37. Furthermore, the fluorescence of the βAlaBpy units is quenched upon coordination to a wide range of divalent transition metal ions. We exploited this property to monitor the coordinative properties of cyclopeptides 1 and 2 in the presence of labile Cu(II) ions in aqueous media. Thus, we measured the emission spectra of 2 μM solutions of the cyclopeptides 1 and 2 in 1 mM phosphate buffer and 10 mM NaCl, pH 6.5, upon excitation at 308 nm in the presence of increasing concentrations of Cu(II) ions. […] Therefore, the affinity of the first part of the titrations cannot be determined with this experiment as it is too strong. […]
5.2. Fluorescence titration experiments
Luminescence experiments were made with a Varian Cary Eclipse Fluorescence spectrophotometer coupled to a Cary Single Cell Peltier accessory (Agilent Technologies) temperature controller. […]
emission spectrum was recorded (λex= 308 nm; λem= 410 nm) after each addition. […]

N=C(N)NCCC[C@@H]1NC(=O)c2ccc(nc2)-c2ccc(cn2)NC(=O)CCNC(=O)[C@H](CCCNC(=N)N)NC(=O)[C@H](CCCNC(=N)N)NC(=O)[C@H](CCCNC(=N)N)NC(=O)c2ccc(nc2)-c2ccc(cn2)NC(=O)CCNC(=O)[C@H](CCCNC(=N)N)NC(=O)[C@H](CCCNC(=N)N)NC1=O [compound 1, cyclo-(βAlaBpy-Arg3)2] (cyclo([X1]RRR[βAla][X1]RRR[βAla]))
E max (maximum % cell inhibition) (SF-268 (human glioma)): 45 ± 2% | IC50 (SF-268 (human glioma)): > 100000 nM | Kd [1]: 390 ± 190 nM
